According to patent US4368267A, “Epoxidation of lower α-olefins” (priority 1980, dated 1983):
Structures can show the parent of a compound that is named as a salt.

What was measured:
[1] = system: Methylococcus capsulatus strain MC; test: Stimulation of propylene epoxidation in cell suspensions; assay type: cell-based; settings: Propylene + 5 mM stimulator compound
Experimental: (§1) The pH of the nutrient medium was adjusted to 7.0 by the addition of acid or base and 50 ml aliquots of the nutrient medium was charged into a plurality of 300 ml shake flasks. The shake flasks were inoculated with an inoculating loop of cells from an agar plate containing homogeneous colonies of the microorganisms on the plate (the purity of the isolates were confirmed by microscopic examination). The isolates had been maintained on agar plates under an atmosphere of methane and air having a 1:1 v/v gas ratio which had been transferred every two weeks. The gaseous phase of the inoculated flasks was then replaced with a gas mixture comprised of methane and air having a ratio of 1:1 on a v/v basis. The inoculated flasks were sealed air tight and were incubated on a rotary shaker of orbital radius 2.5 cm at 250 rpm and at 30° C. for two days until the turbidity in the medium had developed.
(§2) The cells were harvested by centrifugation at 10,000 ×g at 4° C. for 30 minutes. The cell pellet was washed twice with a 0.15 M phosphate buffer at a pH of 7.0 (containing 0.002 M MgCl2). The washed cells were then suspended in a 0.15 M phosphate buffer at pH 7.0.
(§3) A 0.5 ml aliquot of each washed cell suspension (2 mg cells) was put into 10 ml vials at 4° C. which were sealed with a rubber cap. The gaseous phase of the vials was removed with vacuum and then was replaced with a gas mixture of alkene and oxygen at a 1:1 v/v ratio. It was then incubated at 30° C. on a rotary shaker at 300 rpm. Samples of product (3 μl) were withdrawn periodically with a microsyringe and the products were analyzed by gas chromatography (ionization flame detector column).
(§4) Several experiments were carried out using a plurality of compounds capable of generating the necessary reducing power (NADH2 or NADPH2) required for the epoxidation of alkenes or dienes. These experiments were carried out using cell suspensions of methane grown methylotrophs using the procedure as described in Example 1 except that a stimulator compound was added to the reaction medium.

[2] = system: Methylobacterium organophilum (CRL 26, NRRL B-11,222); test: Epoxidation/hydroxylation by washed cell suspensions; assay type: cell-based; settings: Propylene + 5 mM stimulator compound
Experimental: as §1, §2, §3, §4

[3] = system: Methylobacter capsulatus Y (NRRL B-11,201); test: Methane hydroxylation and propylene epoxidation by washed cell suspensions; assay type: cell-based; settings: Propylene + 5 mM stimulator compound
Experimental: as §1, §2
as §3, with “The gaseous phase of the vials was removed with vacuum and then was replaced with a gas mixture of alkene and oxygen at a 1:1 v/v ratio.” left out
Several experiments were carried out using a plurality of compounds capable of generating the necessary reducing power (NADH2 or NADPH2) required for the epoxidation of alkenes or dienes. […]

[4] = system: P(40), P(80), S(80) cell fractions of Methylosinus sp. (CRL-15, NRRL B-11,202); test: Oxidation of n-alkanes and n-alkenes by cell fractions; assay type: biochemical; settings: for % Inhibition, Propylene-Epoxidizing Activity / % Inhibition, Methane-Hydroxylating Activity / Methane-Oxidizing Activity in presence of metal / Propylene-Oxidizing Activity in presence of metal: P(40) fraction; for % Inhibition, Propylene-Epoxidizing Activity / % Inhibition, Methane-Hydroxylating Activity: inhibitor 10^-3 M; for % Inhibition, Propylene-Epoxidizing Activity: uninhibited rate 4.1; for % Inhibition, Methane-Hydroxylating Activity: uninhibited rate 4.5; for Rate of Product Formation (substrate to 1,2-epoxide or alcohol): P(40) particulate fraction, 30° C.; for Methane-Oxidizing Activity in presence of metal / Propylene-Oxidizing Activity in presence of metal: metal 10^-3 M; for Methane-Oxidizing Activity in presence of metal: control 4.0; for Propylene-Oxidizing Activity in presence of metal: control […]
Experimental: Cells were washed twice with 25 mM potassium phosphate buffer, pH 7.0 containing 5 mM MgCl2. Cells were suspended in the same buffer. The cell suspensions at 4° C. were disintegrated by a single passage through a French Pressure cell (15,000 lb./in.^2) and centrifuged at 5000×g. for 15 min. to remove unbroken bacteria. The supernatant solution (crude extract) was then centrifuged at 40,000×g. for 30 min., yielding particulate P(40) and soluble S(40) fractions. The S(40) fraction was subsequently centrifuged at 80,000×g. for 60 min., yielding particulate P(80) and soluble S(80) fractions. The particulate fractions [P(40) and P(80)] were suspended in 25 mM potassium phosphate buffer, pH 7.0, containing 5 mM MgCl2 and homogenized at 4° C.
[…] The reaction mixtures contained in 1.0 ml: 150 mM potassium phosphate buffer, pH 7.0 containing 5 mM MgCl2, 0.6 ml; […] NADH, and cellular fraction.
Reaction mixtures were contained in 10 ml vials at 4° C. Vials were sealed with rubber caps. The gaseous phase in the vials was removed using vacuum and then was replaced with a gas mixture of methane or propylene and oxygen at a 1:1, v/v ratio. Oxidation of other gaseous n-alkanes and n-alkenes was examined as described above. For liquid substrates, 10 μl of substrate was used directly.
The products of epoxidation of n-alkenes and hydroxylation of n-alkanes were assayed by flame ionization gas chromatography using a stainless steel column (12'×1/8") packed with 10% Carbowax 20 M on 80/100 Chromosorb W and Porapak Q column. The column temperature was maintained isothermally at 120° C. The carrier gas flow rate was 30 ml/min. of helium. The various products were identified by retention time comparisons and co-chromatography with authentic standards.
Specific activities were expressed as μ moles of products formed per hour per mg. protein. Concentrations of protein in various fractions were determined by the method of Lowry et al., J. Biol. Chem. 193: 265-275 (1951).

[5] = system: Methylosinus sporium 5 (NRRL B-11,197); test: Methane hydroxylation and alkene epoxidation by washed cell suspensions; assay type: cell-based; settings: methane-grown washed cells, 30° C.
Experimental: as §1, with “The shake flasks were inoculated with an inoculating loop of cells from an agar plate containing homogeneous colonies of the microorganisms on the plate (the purity of the isolates were confirmed by microscopic examination).” left out
as §2
as §3, with “The gaseous phase of the vials was removed with vacuum and then was replaced with a gas mixture of alkene and oxygen at a 1:1 v/v ratio.” left out

[6] = system: Methylosinus trichosporium OB3b (NRRL B-11,196); test: as above; assay type: cell-based; settings: methane-grown washed cells, 30° C.
Experimental: as §1, with “The shake flasks were inoculated with an inoculating loop of cells from an agar plate containing homogeneous colonies of the microorganisms on the plate (the purity of the isolates were confirmed by microscopic examination).” left out
as §2
as §3, with “A 0.5 ml aliquot of each washed cell suspension (2 mg cells) was put into 10 ml vials at 4° C. which were sealed with a rubber cap.” left out

[7] = system: whole cell suspensions of methylotrophs (C1 -utilizing microbes); settings: 2-butanol added; biocatalyst from C1 -C4 gaseous alkane-grown microbes
[8] = system: Methylomonas albus BG8 (NRRL B-11,200); test: Methane hydroxylation and alkene epoxidation by washed cell suspensions; assay type: cell-based; settings: methane-grown washed cells; 0.2 g/100 ml dry weight of cells
Experimental: as §1, with “The shake flasks were inoculated with an inoculating loop of cells from an agar plate containing homogeneous colonies of the microorganisms on the plate (the purity of the isolates were confirmed by microscopic examination).” left out
as §2, §3

[9] = system: Methylomonas methanica S1 (NRRL B-11,199); test: as above; assay type: cell-based; settings: methane-grown washed cells; 0.2 g/100 ml dry weight of cells
Experimental: (§5) The pH of the nutrient medium was adjusted to 7.0 by the addition of acid or base and 50 ml aliquots of the nutrient medium was charged into a plurality of 300 ml shake flasks. […] The isolates had been maintained on agar plates under an atmosphere of methane and air having a 1:1 v/v gas ratio which had been transferred every two weeks. […] The inoculated flasks were sealed air tight and were incubated on a rotary shaker of orbital radius 2.5 cm at 250 rpm and at 30° C. for two days until the turbidity in the medium had developed.
as §2, §3

[10] = system: Methylocystis parvus OBBP (NRRL B-11,198); test: as above; assay type: cell-based; settings: methane-grown washed cells; 0.2 g/100 ml dry weight of cells
Experimental: as §5, §2, §3

CC=O [Acetaldehyde]
Rate of Product Formation (Propylene Oxide) [1]: 154 nmoles/hr/mg protein
Rate of Product Formation (Propylene Oxide) [2]: 13 nmoles/hr/mg protein

CCO [Ethanol]
Rate of Product Formation (Propylene Oxide) [3]: 370 nmoles/hr/mg protein
Rate of Product Formation (Propylene Oxide) [1]: 462 nmoles/hr/mg protein
Rate of Product Formation (Propylene Oxide) [2]: 124 nmoles/hr/mg protein

COC(C)=O [Methyl Acetate]
Rate of Product Formation (Propylene Oxide) [1]: 21 nmoles/hr/mg protein
Rate of Product Formation (Propylene Oxide) [2]: 5.0 nmoles/hr/mg protein

Oc1cccc2cccnc12 [8-Hydroxyquinoline, reference compound]
% Inhibition, Propylene-Epoxidizing Activity [4]: 75%
% Inhibition, Methane-Hydroxylating Activity [4]: 80%

C=CCC [Butene-1]
Conversion rate, butene-1 to 1,2-epoxybutane [5]: 0.8 μmole/hr/mg protein
Conversion rate, butene-1 to 1,2-epoxybutane [6]: 0.45 μmole/hr/mg protein
Rate of Product Formation (substrate to 1,2-epoxide or alcohol) [4]: 2.18 μmoles/hr/mg of protein

CCC(C)O (stereo not shown) [2-Butanol]
Effect on epoxidation of gaseous n-alkenes [7]: somehow inhibited
Rate of Product Formation (Propylene Oxide) [3]: 26 nmoles/hr/mg protein
Rate of Product Formation (Propylene Oxide) [1]: 21 nmoles/hr/mg protein

C=C [Ethylene]
Conversion rate, ethylene to ethylene oxide [8]: 1.2 μmole/hr/mg protein
Conversion rate, ethylene to ethylene oxide [9]: 0.95 μmole/hr/mg protein
Conversion rate, ethylene to ethylene oxide [10]: 0.9 μmole/hr/mg protein
Conversion rate, ethylene to ethylene oxide [5]: 1.1 μmole/hr/mg protein
Conversion rate, ethylene to ethylene oxide [6]: 1.9 μmole/hr/mg protein
Rate of Product Formation (substrate to 1,2-epoxide or alcohol) [4]: 1.27 μmoles/hr/mg of protein

c1cnc2c(c1)ccc1cccnc12 [1,10-phenanthroline, reference compound]
% Inhibition, Propylene-Epoxidizing Activity [4]: 93%
% Inhibition, Methane-Hydroxylating Activity [4]: 90%

COC=O [Methyl Formate]
Rate of Product Formation (Propylene Oxide) [3]: 99 nmoles/hr/mg protein
Rate of Product Formation (Propylene Oxide) [1]: 390 nmoles/hr/mg protein
Rate of Product Formation (Propylene Oxide) [2]: 61 nmoles/hr/mg protein

[Cl][Fe]([Cl])[Cl] [Ferric Chloride]
Methane-Oxidizing Activity in presence of metal [4]: 4.8 μmoles/hr/mg protein
Propylene-Oxidizing Activity in presence of metal [4]: 5.8 μmoles/hr/mg protein

Ferrous Sulfate
Methane-Oxidizing Activity in presence of metal [4]: 4.8 μmoles/hr/mg protein
Propylene-Oxidizing Activity in presence of metal [4]: 5.9 μmoles/hr/mg protein

[Cl][Cu] [Cuprous Chloride]
Methane-Oxidizing Activity in presence of metal [4]: 7.2 μmoles/hr/mg protein
Propylene-Oxidizing Activity in presence of metal [4]: 9.2 μmoles/hr/mg protein

NNC(N)=S [Thiosemicarbazide, reference compound]
% Inhibition, Propylene-Epoxidizing Activity [4]: 97%
% Inhibition, Methane-Hydroxylating Activity [4]: 100%

CC(C)O [Isopropanol]
Rate of Product Formation (Propylene Oxide) [3]: 13 nmoles/hr/mg protein
Rate of Product Formation (Propylene Oxide) [1]: 37 nmoles/hr/mg protein
Rate of Product Formation (Propylene Oxide) [2]: 20 nmoles/hr/mg protein
